According to PubChem BioAssay (NCI):
Where “and” joins values, the source holds several entries; their conditions need not be identical. Equal entries are not always repeated.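 Following 48 hours of exposure in 96-well plates, responses at five concentrations were used to interpolate endpoints linearly. GI50: concentration for 50% inhibition of growth. The concentration for full growth arrest is given as TGI.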

What was measured:
Assay in all cases: growth of human tumour cells (NCI), 48 h
OVCAR-5 ovarian = tested on: OVCAR-5 ovarian
EKVX NSCLC = tested on: EKVX NSCLC
SR leukemia = tested on: SR leukemia
786-0 renal = tested on: 786-0 renal
IGROV1 ovarian = tested on: IGROV1 ovarian
SNB-19 CNS = tested on: SNB-19 CNS
RPMI-8226 leukemia = tested on: RPMI-8226 leukemia
OVCAR-3 ovarian = tested on: OVCAR-3 ovarian
SK-MEL-5 melanoma = tested on: SK-MEL-5 melanoma
NCI/ADR-RES ovarian = tested on: NCI/ADR-RES ovarian

Structure (SMILES)	TGI (OVCAR-5 ovarian)	TGI (EKVX NSCLC)	TGI (SR leukemia)	TGI (786-0 renal)	TGI (IGROV1 ovarian)	TGI (SNB-19 CNS)	TGI (RPMI-8226 leukemia)	TGI (OVCAR-3 ovarian)	GI50 (SK-MEL-5 melanoma)	GI50 (SR leukemia)	GI50 (SNB-19 CNS)	GI50 (OVCAR-5 ovarian)	GI50 (EKVX NSCLC)	TGI (SK-MEL-5 melanoma)	GI50 (786-0 renal)	GI50 (IGROV1 ovarian)	GI50 (NCI/ADR-RES ovarian)	TGI (NCI/ADR-RES ovarian)	GI50 (RPMI-8226 leukemia)	GI50 (OVCAR-3 ovarian)
CC1(CO)OC1COCc1ccccc1 (stereo unspecified)	> 100 µM	> 100 µM	> 100 µM	> 100 µM	> 100 µM	> 100 µM	> 100 µM	> 100 µM												
COc1cc2c(c(OC)c1OC)-c1ccc(SC)c(=O)cc1[C@@H](NC(=O)c1ccc(OC(C)=O)cc1)CC2	65.5 µM	> 100 µM	23.9 µM	12.9 µM	> 100 µM			0.034 µM	0.0196 µM	0.00773 µM	0.0214 µM									
Cn1ccc2c(NCCN)c3c(c(NCCN)c21)C(=O)c1ccccc1C3=O	12 µM	5.3 µM		3.95 µM	> 31.8 µM	47.2 µM		5.37 µM	2.19 µM		20.5 µM	2.78 µM	1.34 µM	4.99 µM	0.443 µM	0.824 µM	8.04 µM	26.7 µM	0.455 µM	0.795 µM
N#Cc1ccccc1NC(=O)/C(=N\NC(=O)c1ccncc1)C(c1cnc2ccc([N+](=O)[O-])cc2n1)[N+](=O)[O-] (stereo unspecified)	> 100 µM	> 100 µM		> 100 µM	> 100 µM		> 100 µM	> 100 µM						> 100 µM				> 100 µM		
N#CC1=C(N)OC2=C(COc3ccc(F)cc32)C1c1ccc(Cl)cc1 (stereo unspecified)	> 100 µM	> 100 µM		> 100 µM	> 100 µM		> 100 µM	42.3 µM	20.4 µM			41.6 µM	37.3 µM	58.7 µM	32.3 µM	70.3 µM	19.1 µM	48.8 µM	26.6 µM	17.2 µM
O=C(c1cc(F)c(Cl)cc1Cl)N1N=C(c2ccccc2)CC1(O)c1ccccc1 (stereo unspecified)	70.9 µM	65.5 µM		40.9 µM	36.7 µM	93.7 µM	35.4 µM	59.5 µM	14 µM		29.2 µM	23.3 µM	19.2 µM	26.9 µM	15.8 µM	15.2 µM	19 µM	41 µM	11.5 µM	18.9 µM
O=C1CCCCCCCC/C=C/CCC(c2ccco2)O1 (stereo unspecified)	> 100 µM	> 100 µM		> 100 µM	> 100 µM	60.7 µM	37.6 µM	> 100 µM	44 µM		24 µM	> 100 µM	> 100 µM	> 100 µM	45.9 µM	51.2 µM	> 100 µM	> 100 µM	13.6 µM	39.4 µM
CC(=O)OCC1OC(OC2CC3C(C)(C)C(OC(C)=O)CC[C@]3(C)C3CCC45CC4(CC[C@H]5C(C)CC(O)[C@@H](O)C(C)(C)O)[C@]23C)C(O)C(O)C1O (stereo partly specified)	13.9 µM and 27.9 µM	13.1 µM and 29.2 µM		14.2 µM and 21.9 µM	13.7 µM and 14.4 µM	13.2 µM and 14.8 µM	6.74 µM and 11.6 µM	13.3 µM and 19.3 µM			4.35 µM	14.6 µM	15.8 µM	13.2 µM and 19.7 µM		4.63 µM			2.09 µM	
c1ccc(C(=NNc2nc3ccccc3o2)c2ccccn2)nc1					11.7 µM	> 46 µM and 33.7 µM		14.5 µM and 16.9 µM	0.163 µM			0.0847 µM	0.0387 µM	1.18 µM and 0.491 µM	0.125 µM	0.0437 µM	0.0386 µM		0.047 µM	< 0.0218 µM and 0.035 µM
Cc1cccc(C)c1NC(=O)CCCC(=O)CC(=O)/C=C/c1ccccc1	> 100 µM			> 100 µM	> 100 µM	> 100 µM	> 100 µM	> 100 µM						> 100 µM						
CCOC(=O)CCCn1c(SC)nc2cc(-c3ccco3)[nH]c2c1=O	> 100 µM	> 100 µM		> 100 µM	76.6 µM	65.6 µM	> 100 µM	> 100 µM	> 100 µM		19.8 µM	> 100 µM	65.9 µM	> 100 µM	34.2 µM	19.6 µM	72.9 µM	> 100 µM	> 100 µM	48.2 µM
CN(C)CC(/C(Cc1ccccc1)=N\NC(=O)c1ccncc1)c1ccccc1 (stereo unspecified)	> 100 µM	68.1 µM		> 100 µM	> 100 µM	> 100 µM	51.6 µM	> 100 µM						46.2 µM						
c1nc2cscc2c2cscc12	> 100 µM		> 100 µM	> 100 µM	> 100 µM	> 100 µM	> 100 µM	> 100 µM												
COc1ccc(C2S/C(=C\c3cc(OC)c(OC)c(OC)c3)C(=O)N2NC(=O)Cc2ccccc2)cc1 (stereo unspecified)	> 100 µM		> 100 µM	> 100 µM	> 100 µM		> 100 µM							> 100 µM						
Fc1ccc(Oc2nccc(-c3c(-c4ccc(F)cc4)ncn3C3CCNCC3)n2)cc1	> 25 µM	> 25 µM		> 25 µM	> 25 µM	> 25 µM	> 25 µM	> 25 µM	> 25 µM		> 25 µM	> 25 µM	> 25 µM	> 25 µM	> 25 µM	19.2 µM	> 25 µM	> 25 µM	> 25 µM	> 25 µM
O=[N+]([O-])c1ccc(Sc2c3ccccc3nc3ccccc23)cc1	> 100 µM	> 100 µM		> 100 µM	> 100 µM	> 100 µM	> 100 µM	> 100 µM						> 100 µM						
Nc1nc(Nc2ccc3c(c2)CC[C@@H](N2CCCC2)CC3)nn1-c1cc2c(nn1)-c1ccccc1CCC2	3.29 µM	3.29 µM	2.69 µM	3.28 µM		3.45 µM		3.36 µM	1.72 µM	0.441 µM	1.83 µM	1.63 µM	1.68 µM	3.11 µM	1.55 µM					1.74 µM
O=C(Nc1ccc(-n2cc(-c3ccncc3)c(-c3ccc(Cl)c(O)c3)n2)cc1)Nc1cc(C(F)(F)F)cc(C(F)(F)F)c1	7.21 µM	5.51 µM		3.72 µM	4.45 µM	9.97 µM		2.89 µM	1.67 µM		3.01 µM	2.26 µM	1.97 µM	3.41 µM	1.8 µM	2.04 µM	2.22 µM	5.6 µM		1.52 µM
